Assay results: ChEMBL document CHEMBL4190162, “SAR and identification of 2-(quinolin-4-yloxy)acetamides as Mycobacterium tuberculosis cytochrome bc1 inhibitors” (Medchemcomm, 2016)
In brackets after ≈: the same amount, converted by molar mass. Activity calls are given as the source filed them. The calls are words filed in the database; no cut-off is given here.

Legend:
[1] = test system: Mycobacterium tuberculosis; experiment: Antimycobacterial activity against Mycobacterium tuberculosis H37Rv measured after 6 days by resazurin dye based fluorescence assay; type: functional; settings: 144 h
[2] = test system: Mycobacterium tuberculosis; experiment: Antimycobacterial activity against Mycobacterium tuberculosis H37Rv BSG001; type: functional, organism-based
[3] = Cytotoxicity against human HepG2 cells after 24 to 48 hrs in presence of glucose by trypan blue dye-based hemocytometric method; type: cell-based
[4] = test system: Mycobacterium tuberculosis; experiment: Antimycobacterial activity against Mycobacterium tuberculosis H37Rv measured after 2 weeks; type: functional; settings: 336 h
[5] = test system: Mycobacterium tuberculosis; experiment: Antimycobacterial activity against Mycobacterium tuberculosis H37Rv after 2 weeks by microplate alamar blue assay; type: functional; settings: 336 h
[6] = test system: Mycobacterium tuberculosis H37Rv; experiment: Inhibition of Mycobacterium tuberculosis H37Rv cytochrome bc1 oxidase assessed as reduction in ATP level measured up to 24 hrs under anaerobic condition
[7] = test system: Mycobacterium tuberculosis; experiment: Antimycobacterial activity against Mycobacterium tuberculosis H37Rv measured after 1 week; type: functional; settings: 168 h
[8] = Cytotoxicity against human HepG2 cells after 24 to 48 hrs in presence of galactose by trypan blue dye-based hemocytometric method; type: cell-based
[9] = test system: Escherichia coli; experiment: Antibacterial activity against Escherichia coli 25922; type: functional, organism-based; settings: ATCC 25922
[10] = test system: Staphylococcus aureus; experiment: Antibacterial activity against Staphylococcus aureus XEN36; type: functional, organism-based
[11] = test system: Mycobacteroides abscessus; experiment: Antibacterial activity against Mycobacterium abscessus; type: functional, organism-based
[12] = test system: Mycolicibacterium smegmatis; experiment: Antibacterial activity against Mycobacterium smegmatis; type: functional, organism-based

Row | Structure (SMILES) | MIC90 [1] [µM] | Activity [2] | CC50 [3] [µM] | MIC [4] [µM] | MIC [5] [µM] | inhibition [6] | MIC [7] [µM] | CC50 [8] [µM] | Activity [9] | Activity [10] | Activity [11] | Activity [12]
1 | COc1ccc2nc(C)cc(OCC(=O)Nc3cccc(C)c3)c2c1 | 0.3 to 3.3 (≈ 0.101 to 1.11 µg/mL) |  |  |  |  |  |  |  |  |  |  | 
2 | Cc1cc(OCC(=O)NCc2ccccc2)c2cc(Br)ccc2n1 | 0.3 to 3.3 (≈ 0.116 to 1.27 µg/mL) |  |  |  |  |  |  |  |  |  |  | 
3 | Cc1cc(OCC(=O)Nc2ccccc2)c2cc(Br)ccc2n1 | 0.3 to 3.3 (≈ 0.111 to 1.23 µg/mL) |  |  |  |  |  |  |  |  |  |  | 
4 | COc1ccc2nc(C)cc(OCC(=O)Nc3ccccc3OC)c2c1 | 0.3 to 3.3 (≈ 0.106 to 1.16 µg/mL) | inactive | > 142 | 53.9 (≈ 19 µg/mL) | 1.11 (≈ 0.391 µg/mL) | Active | 2.21 (≈ 0.779 µg/mL) | 19.6 |  |  |  | 
5 | COc1ccc2nc(C)cc(OCC(=O)NCCCc3ccccc3)c2c1 |  | inactive | > 137 | 68.6 (≈ 25 µg/mL) | 25.8 (≈ 9.4 µg/mL) | Active | 68.6 (≈ 25 µg/mL) | 50.7 | inactive | inactive | inactive | inactive
6 | COc1ccc2nc(C)cc(OCC(=O)Nc3ccc(-c4ccccc4)cc3)c2c1 |  | inactive | > 126 | > 125 | 1.51 (≈ 0.602 µg/mL) | Active | > 125 | > 126 | inactive | inactive | inactive | inactive
7 | COc1ccc2nc(C)cc(OCC(=O)NCc3ccccc3)c2c1 | 0.3 to 3.3 (≈ 0.101 to 1.11 µg/mL) | inactive | > 149 | > 148 | 2.32 (≈ 0.78 µg/mL) | Active | 3.57 (≈ 1.2 µg/mL) | > 149 |  |  |  | 
8 | COc1ccc2nc(C)cc(OCC(=O)NCCc3ccc4c(c3)OCO4)c2c1 |  | inactive | > 127 | > 127 | 31.7 (≈ 12.5 µg/mL) | Active | ≥ 127 | > 127 | inactive | inactive | inactive | inactive
9 | COc1ccccc1NC(=O)COc1cc(C)nc2ccccc12 |  | inactive | 43.9 | > 155 | > 78 | Active | 38.8 (≈ 12.5 µg/mL) | 8.64 | inactive | inactive | inactive | inactive
10 | COc1ccccc1NC(=O)COc1cc(C)nc2ccc(C(F)(F)F)cc12 |  | inactive | > 128 | > 128 | > 128 | Active | > 128 | > 128 | inactive | inactive | inactive | inactive
11 | COc1ccc2nc(C)cc(OCC(=O)Nc3ccc(C)cc3)c2c1 |  | inactive | > 149 | > 149 | 0.45 (≈ 0.151 µg/mL) | Active | 0.45 (≈ 0.151 µg/mL) | 41.5 | inactive | inactive | inactive | inactive
12 | COc1cccc(NC(=O)COc2cc(C)nc3ccc(OC)cc23)c1 |  | inactive | 43 | > 142 | 6.53 (≈ 2.3 µg/mL) | Active | 142 (≈ 50 µg/mL) | 24.7 | inactive | inactive | inactive | inactive
13 | COc1ccc2nc(C)cc(OCC(=O)Nc3ccc(Br)cc3)c2c1 |  | inactive | > 125 | > 125 | 1.94 (≈ 0.778 µg/mL) | Active | > 125 | > 125 | inactive | inactive | inactive | inactive
14 | COc1cc(NC(=O)COc2cc(C)nc3ccc(OC)cc23)cc(OC)c1 |  | inactive | > 131 | > 131 | 24.6 (≈ 9.4 µg/mL) | Active | > 131 | > 131 | inactive | inactive | inactive | inactive
15 | COc1ccc2nc(C)cc(OCC(=O)Nc3ccc(OC)c(OC)c3)c2c1 |  | inactive | > 131 | > 131 | 24.6 (≈ 9.4 µg/mL) | Active | > 131 | > 131 | inactive | inactive | inactive | inactive
